Laboratory results taken from patent US20080206761A1, “Ex Vivo Gene Expression in Whole Blood as a Model of Assessment of Individual Variation to Dietary Supplements” (priority 2005, published 2008).

Assays:
IL-2 mRNA [1] = test: PHA-induced IL-2 mRNA expression in heparinized whole blood ex vivo; assay type: cell-based, human; details: for ΔΔCt (mean ± standard deviation, n = 3), IL-2 mRNA: supplement 30 min, concentrations per footnote
Experimental: (§1) In this embodiment, phytohemagglutinin-induced gene expression of interleukin-2 (IL-2), interleukin-4 (IL-4), and tumor necrosis factor-α (TNF-α) were quantitated in the following manner. Fifty μL of heparinized whole blood was incubated with various dietary supplements for a period of 30 minutes. The following supplements were employed: vitamins A, C, and D, epigallocatechin gallate (from green tea), genistein (from soy), and curcumin (from the spice turmeric). Vitamin A is known to stimulate the immune system. […] Vitamin D appears to have protective effects against certain cancers. Epigallocatechin gallate is a powerful antioxidant, appears to reduce the multidrug resistance found in cancer cells, and preferentially induces apoptosis in neoplastic cells. Genistein has been found in some studies to have anticarcinogenic activity; possible mechanisms of action include upregulation of apoptosis, inhibition of angiogenesis, inhibition of DNA topoisomerase II and inhibition of protein tyrosine kinases. Curcumin has proapoptotic effects in neoplastic cells and interferes with the activity of the transcription factor NF-κB, which is often highly overexpressed in such cells.
(§2) After incubation with the dietary supplement, 100 μg/mL phytohemagglutinin (PHA) was added and incubation was continued for an additional 2 hours at 37° C. The concentration of each dietary supplement (see Table I, note) was slightly higher than reported blood levels. Then mRNA was purified, cDNA was synthesized, and the levels of IL-2, IL-4, and TNF-α were quantitated by TaqMan real time polymerase chain reaction (PCR) (see Holland, et al., “Detection of specific polymerase chain reaction product by utilizing the 5′ to 3′ exonuclease activity of Thermus aquaticus DNA polymerase,” Proc Natl Acad Sci USA 1991; 88: 7276-80), as described below.
(§3) The mRNA and cDNA were prepared from the whole blood that was exposed to the dietary components, as well as the whole blood which remained unexposed. In brief, home-made 96-well filterplates were placed over collection plates, and 150 μl 5 mM Tris, pH 7.4, was applied. Following centrifugation at 120×g for 1 min at 4° C., 50 μl of blood samples were applied to each well and immediately centrifuged at 120×g for 2 min at 4° C., followed by washing of each well with 300 μl PBS once with centrifugation at 2000×g for 5 min at 4° C. Then, 60 μl stock lysis buffer, containing for example 0.5% N-Lauroylsarcosine, 4×SSC, 10 mM Tris HCl, pH 7.4, 1 mM EDTA, 0.1% IGEPAL CA-630, and 1.791 M guanidine thiocyanate, supplemented with 1% 2-mercaptoethanol (Bio Rad, Hercules, Calif., USA), 0.5 mg/ml proteinase K (Pierce, Rockford, Ill., USA), 0.1 mg/ml salmon sperm DNA (5 Prime Eppendorf/Brinkmann, Westbury, N.Y., USA), 0.1 mg/ml E. coli tRNA (Sigma), a cocktail of 10 mM each of the specific reverse primers shown in Table 2, and standard RNA34 oligonucleotides, were applied to the filterplates, followed by incubation at 37° C. for 10 min. The filterplates were then placed over oligo(dT)-immobilized microplates (GenePlate, RNAture), and centrifuged at 2000×g for 5 min at 4° C. Following overnight storage at 4° C., the microplates were washed with 100 μl plain lysis buffer 3 times, followed by 150 μl of wash buffer (0.5 M NaCl, 10 mM Tris, pH 7.4, 1 mM EDTA) 3 times at 4° C. The cDNA was directly synthesized in each well by adding 30 μl of buffer containing 1×RT-buffer, 1.25 mM each of dNTP, 4 units rRNasin, and 80 units of MMLV reverse transcriptase (Promega) (without primers), and incubation at 37° C. for 2 hours. The specific primer-primed cDNA existed in solution, and oligo(dT)-primed cDNA stayed immobilized in the microplate. […]

IL-4 mRNA [2] = test: PHA-induced IL-4 mRNA expression in heparinized whole blood ex vivo; assay type: cell-based, human; details: for ΔΔCt (mean ± standard deviation, n = 3), IL-4 mRNA: supplement 30 min, then 100 μg/mL PHA 2 h, concentrations per footnote
Experimental: as §1, §2, §3

TNF-α mRNA [3] = test: PHA-induced TNF-α mRNA expression in heparinized whole blood ex vivo; assay type: cell-based, human; details: for ΔΔCt (mean ± standard deviation, n = 3), TNFα mRNA: supplement 30 min, then 100 μg/mL PHA 2 h, concentrations per footnote
Experimental: as §1, §2, §3

[4] = system: CD32A mRNA (IgG Fc receptor); test: CD32A mRNA level in leukocytes after exposure of whole blood to dietary components (no stimulating agent); assay type: cell-based, human; details: one individual; 3 hours at 37° C.; PBS control
Experimental: In brief, home-made 96-well filterplates were placed over collection plates, and 150 μl 5 mM Tris, pH 7.4, was applied. Following centrifugation at 120×g for 1 min at 4° C., 50 μl of blood samples were applied to each well and immediately centrifuged at 120×g for 2 min at 4° C., followed by washing of each well with 300 μl PBS once with centrifugation at 2000×g for 5 min at 4° C. […] The filterplates were then placed over oligo(dT)-immobilized microplates (GenePlate, RNAture), and centrifuged at 2000×g for 5 min at 4° C. Following overnight storage at 4° C., the microplates were washed with 100 μl plain lysis buffer 3 times, followed by 150 μl of wash buffer (0.5 M NaCl, 10 mM Tris, pH 7.4, 1 mM EDTA) 3 times at 4° C. […] The specific primer-primed cDNA existed in solution, and oligo(dT)-primed cDNA stayed immobilized in the microplate. […] Each gene was amplified in separate wells. The Ct was determined by analytical software (SDS, ABI).

[5] = at 8 hours after a single soy meal; cited from earlier work
TNFSF3 mRNA = TNFSF3 mRNA in whole blood after dietary component and heat-aggregated IgG stimulation; assay type: cell-based, human; details: case 1, FIG. 5; pre-incubation 30 minutes, HAG 2 hours; quercetin 100 nmol/L
Experimental: The mRNA and cDNA were prepared from the whole blood that was exposed to the dietary components, as well as the whole blood which remained unexposed. In brief, home-made 96-well filterplates were placed over collection plates, and 150 μl 5 mM Tris, pH 7.4, was applied. Following centrifugation at 120×g for 1 min at 4° C., 50 μl of blood samples were applied to each well and immediately centrifuged at 120×g for 2 min at 4° C., followed by washing of each well with 300 μl PBS once with centrifugation at 2000×g for 5 min at 4° C. […] The Ct was determined by analytical software (SDS, ABI).
In this embodiment, heparinized whole blood of two individuals was pre-incubated with various dietary supplements at 37° C. for 30 minutes (at the same blood concentrations as in Embodiment 2), then stimulated with 1.2 μL of heat-aggregated IgG. […] The level of TNFSF3 and TNFSF15 mRNA was then assessed using the method described in Embodiment 1, with the exception that SYBR Green PCR was used to quantitate the mRNA. […]

TNF-α mRNA [6] = test: PHA-induced TNF-α mRNA expression in heparinized whole blood ex vivo; assay type: cell-based, human
IL-2 mRNA [7] = test: PHA-induced IL-2 mRNA expression in heparinized whole blood ex vivo; assay type: cell-based, human
IL-4 mRNA [8] = test: PHA-induced IL-4 mRNA expression in heparinized whole blood ex vivo; assay type: cell-based, human
[9] = summary over 7 subjects of Table I
[10] = PHA alone, 2 hours at 37° C., FIG. 1A

For `O=c1c(-c2ccc(O)cc2)coc2cc(O)cc(O)c12` [Gen., genistein], the “ΔΔCt (mean ± standard deviation, n = 3), IL-2 mRNA” value (IL-2 mRNA [1]; Subject 1, then 100 μg/mL PHA 2 h 37° C., negative = increased expression) was −0.41 ± 0.53, the “ΔΔCt (mean ± standard deviation, n = 3), IL-2 mRNA” value (IL-2 mRNA [1]; Subject 2, then 100 μg/mL PHA 2 h) was 0.90 ± 0.44 and the “ΔΔCt (mean ± standard deviation, n = 3), IL-2 mRNA” value (IL-2 mRNA [1]; Subject 3, then 100 μg/mL PHA 2 h) was 0.11 ± 0.23. The “ΔΔCt (mean ± standard deviation, n = 3), IL-2 mRNA” value (IL-2 mRNA [1]; Subject 4, then 100 μg/mL PHA 2 h) was 0.08 ± 0.04, the “ΔΔCt (mean ± standard deviation, n = 3), IL-2 mRNA” value (IL-2 mRNA [1]; Subject 5, then 100 μg/mL PHA 2 h) was −0.02 ± 1.03 and the “ΔΔCt (mean ± standard deviation, n = 3), IL-2 mRNA” value (IL-2 mRNA [1]; Subject 6, then 100 μg/mL PHA 2 h) was 0.00 ± 0.27. For the same compound, the “ΔΔCt (mean ± standard deviation, n = 3), IL-2 mRNA” value (IL-2 mRNA [1]; Subject 7, then 100 μg/mL PHA 2 h) was −0.28 ± 0.20, the “effect on PHA-induced IL-2 expression, in words” value (IL-2 mRNA [1]; [9]) was “mainly inactive” and the “ΔΔCt (mean ± standard deviation, n = 3), IL-4 mRNA” value (IL-4 mRNA [2]; Subject 1) was −1.83 ± 0.20. For the same compound, the “ΔΔCt (mean ± standard deviation, n = 3), IL-4 mRNA” value (IL-4 mRNA [2]; Subject 2) was −1.56 ± 0.46, the “ΔΔCt (mean ± standard deviation, n = 3), IL-4 mRNA” value (IL-4 mRNA [2]; Subject 3) was −0.82 ± 0.34 and the “ΔΔCt (mean ± standard deviation, n = 3), IL-4 mRNA” value (IL-4 mRNA [2]; Subject 4) was −1.04 ± 0.16. The “ΔΔCt (mean ± standard deviation, n = 3), IL-4 mRNA” value (IL-4 mRNA [2]; Subject 5) was −0.45 ± 0.34, the “ΔΔCt (mean ± standard deviation, n = 3), IL-4 mRNA” value (IL-4 mRNA [2]; Subject 6) was −0.34 ± 0.02 and the “ΔΔCt (mean ± standard deviation, n = 3), IL-4 mRNA” value (IL-4 mRNA [2]; Subject 7) was 0.28 ± 0.25. For the same compound, the “effect on PHA-induced IL-4 expression, in words” value (IL-4 mRNA [2]; [9]) was “mainly inactive”, the “ΔΔCt (mean ± standard deviation, n = 3), TNFα mRNA” value (TNF-α mRNA [3]; Subject 1) was −1.14 ± 0.32 and the “ΔΔCt (mean ± standard deviation, n = 3), TNFα mRNA” value (TNF-α mRNA [3]; Subject 2) was −1.01 ± 0.04. For the same compound, the “ΔΔCt (mean ± standard deviation, n = 3), TNFα mRNA” value (TNF-α mRNA [3]; Subject 3) was 0.33 ± 0.62, the “ΔΔCt (mean ± standard deviation, n = 3), TNFα mRNA” value (TNF-α mRNA [3]; Subject 4) was −0.16 ± 0.12 and the “ΔΔCt (mean ± standard deviation, n = 3), TNFα mRNA” value (TNF-α mRNA [3]; Subject 5) was −0.32 ± 0.54. For the same compound, the “ΔΔCt (mean ± standard deviation, n = 3), TNFα mRNA” value (TNF-α mRNA [3]; Subject 6) was −0.02 ± 0.20, the “ΔΔCt (mean ± standard deviation, n = 3), TNFα mRNA” value (TNF-α mRNA [3]; Subject 7) was −0.17 ± 0.18 and the “effect on PHA-induced TNF-α expression, in words” value (TNF-α mRNA [3]; [9]) was “mainly inactive”. For the same compound, the “conclusion from CD32A mRNA levels (FIG. 2), in words” value [4] was “would be suitable for use in this individual in a diet optimized for anti-cancer activity” and the plasma concentration [5] was 4000 µM.
With `O=c1c(O)c(-c2ccc(O)c(O)c2)oc2cc(O)cc(O)c12` [quercetin] the “HAG-induced TNFSF3 expression, in words” value (TNFSF3 mRNA) was “HAG induced TNFSF3 expression in blood exposed to quercetin”.
In the case of phytohemagglutinin [PHA], the “time for TNF-α mRNA induction to reach a plateau” value (TNF-α mRNA [6]; 100 μg/mL PHA, FIG. 1B) is reported as 30 to 60 min, the “EC50 of induction of TNF-α mRNA expression” value (TNF-α mRNA [6]; [10]) is reported as 10 to 20 µg/mL and the “time for IL-2 mRNA induction to reach a plateau” value (IL-2 mRNA [7]; 100 μg/mL PHA, FIG. 1B) is reported as 30 to 60 min. For the same compound, the “EC50 of induction of IL-2 mRNA expression” value (IL-2 mRNA [7]; [10]) was 10 to 20 µg/mL, the “time for IL-4 mRNA induction to reach a plateau” value (IL-4 mRNA [8]; 100 μg/mL PHA, FIG. 1B) was 30 to 60 min and the “EC50 of induction of IL-4 mRNA expression” value (IL-4 mRNA [8]; [10]) was 10 to 20 µg/mL.
